The record followed here is US20250346613A1, “BORIC ACID PROTEASOME INHIBITOR AND USE THEREOF” (ARTIVILA BIOPHARMA, priority 2022, published 2025).

Assay type in all cases: cell-based
One experiment concerns MM.1S cell strain. Kind of experiment: Inhibitory activity of cell strain (CellTiter-Glo). As to conditions: Homo sapiens, MM1.S, 72 h incubation. Here is the method: The cells used in this experiment were MM.1S cell strain and the detection reagent was CellTiter-Glo (Promega). […] The experimental process was described below. MM.1S cells in the logarithmic growth phase and in a good status were digested into individual cells by trypsin, centrifuged to remove the supernatant, and counted. Cells were diluted and 100 μL of cell suspension per well was added to a 96-well enzyme-coated plate at 1×10^5 cells per well. The wells containing only RPMI1640 complete medium were set as blank control. The 96-well plate was transferred to a 37° C. incubator containing 5% CO2 for 24 h of incubation.
The compound was accurately weighed and dissolved in DMSO to a concentration of 10^−2 M. 10 μL of compound was pipetted to 190 μL of DMSO to given a 5×10^−4 M compound. 6 μL of the compound (5×10^−5 M) was pipetted to a new 96-well microplate containing 194 μL of RPMI1640 complete medium and diluted in a 3-fold gradient dilution. 50 μL of the diluted compound was transferred to the 96-well microplate containing the cells such that the final compound concentrations were 5×10^−7 M, 1.67×10^−7 M, 5.55×10^−8 M, 1.85×10^−8 M, 6.17×10^−9 M, 2.06×10^−9 M, 6.86×10^−10 M, 2.29×10^−10 M, and 0 M. For the 0 M, no compound was added, and the same concentration of DMSO was added. The marketed drug bortezomib was used as a positive control. The 96-well microplate added with compounds was placed in the 37° C. incubator for 72 h of incubation.
At the predetermined detection time, the 96-well microplate to be detected was placed at room temperature, added with 40 μL of detection reagent (CellTiter-Glo) per well, and covered with a dark lid or piece of aluminium foil. The contents were mixed on an orbit oscillator for 10 min for complete cell lysis, with a vibration speed of 150 rpm. Luminescence values were detected on a multifunctional microplate reader (BioTek Synergy H1 Hybrid Multi-Mode Reade).
The data were exported and the percentage inhibition was calculated according to the following formula: Inhibition rate=(maximum signal value-compound signal value)/(maximum signal value−blank signal value)×100%, • wherein maximum signal was obtained from alone DMSO-treated cells, and blank signal was obtained from wells containing only culture medium.
On the technique in general: Cellular ATP, detected with luciferase, serves as a proxy for viable cell number.

Experiment [1] has as its target T1, β5c subunit of the 20S proteasome (Homo sapiens, UniProt P20618+P28074).
T1 construct: The proteasome tested in the present disclosure was derived from Raji cells; endogenous in cells; host or cells: Raji cells
Briefly: Proteasome inhibitory activity, β5c subunit (Raji cells treated with compound, lysed, Suc-LLVY-AMC substrate). As to conditions: proteasome from Raji cells incubated with compound 4 h. From the text: (§1) In the present disclosure, the fluorescent peptide substrate Ac-Ala-Asn-Trp-AMC (abbreviated as Ac-ANW-AMC) and the […] kit containing a fluorescent peptide substrate Suc-Leu-Leu-Val-Tyr-AMC (abbreviated as Suc-LLVY-AMC) (Promega, Item No. G8660) were used to detect the activities of the β5i subunit and β5c subunit of the 20S proteasome, respectively.
(§2) The proteasome tested in the present disclosure was derived from Raji cells, the fluorescent substrate Ac-ANW-AMC was purchased from Roche company, and other reagents were purchased from Sigma company. The experimental system was divided into two parts of cell lysis system and enzyme reaction system. […] The starting concentration of the compound (inhibitor) was 1 μM. It was diluted in a 3-fold serial dilution to a total of 8 concentrations, that is, the administration concentration can be 1 μM, 0.333 μM, 0.111 μM . . . , respectively, and the specific experimental process was described below.
(§3) Raji cells (1×10^6 cells) cryopreserved in liquid nitrogen were thawed rapidly in a water bath at 37° C. The cell pellet was transferred to a 15 mL centrifuge tube, added with 9 mL of fresh medium (Gibco RPMI1640 added with 10% fetal bovine serum and 1% double antibiotics), centrifuged at 120 g for 5 min, inoculated to 25 mL cell culture flasks, and passaged once every 2-3 days.
(§4) The compound was weighed and dissolved in DMSO to a concentration of 10 mM. The compound was then sequentially diluted to concentrations of 200 μM, 66.67 μM, 22.22 μM, 7.41 μM, 2.47 μM, 0.82 μM, 0.27 μM, and 0.091 μM with fresh medium. Raji cells in a good growth status were inoculated into a 48-well cell culture plate at 7×10^5 cells/mL.
(§5) Raji cells in a good growth status were taken and counted. They were then inoculated to a 48-well cell culture plate at 7×10^5 cells/mL. Each 5 μL of the various concentrations of diluted compounds above were taken and added to the culture plate inoculated with cells, and the lowest concentration of compound was 0 μM. The drug bortezomib (Velcade) and ONX-0914 were used as the positive control compounds. All cells were incubated at 37° C. for 4 h.
(§6) The compound-treated cells were sequentially transferred into 1.5 mL centrifuge tubes, centrifuged at 10000 rpm for 2 min, and the supernatants were removed. The cell pellet was resuspended in 1 mL of PBS, centrifuged at 10000 rpm for 2 min, and the supernatant was removed. Cells were resuspended by adding 100 μL of cell lysate (50 mM Tris of pH 7.5, 150 mM NaCl, 5 mM MgCl2, 5 mM ATP, 1 mM DTT, 0.01% NP-40, 1 mM Digitonin, and Cocktail), placed in an ice bath for 30 min, and centrifuged at 13000 rpm for 10 min.
(§7) 2 mg of fluorescent peptide substrate AC-ANW-AMC was dissolved in 424.7 μL of DMSO to obtain an 8 mM stock solution, and stored at −20° C. The stock solution was diluted 100-fold to a final concentration of […] for use in the reaction system. The fluorescent peptide substrate Suc-LLVY-AMC was prepared according to the instructions of the Promega kit.
(§8) Each 20 μL of the prepared proteasome solution above was added to a 96-well white luciferase microplate and added with 25 μL of AC-ANW-AM substrate buffer solution (50 mM Tris of pH 7.5, 150 mM NaCl, 5 mM MgCl2, 5 mM ATP, 80 uM Ac-ANW-AMC and 1 mM DTT) and 25 μL of Suc-LLVY-AMC substrate buffer solution for 10 min of reaction at 37° C. in the dark. Fluorescence values were read at 345 nm/445 nm by using a fluorence microplate reader.
(§9) The data were exported and the inhibition rate in percentage was calculated according to the following formula: Inhibition rate=(maximum signal value-compound signal value)/(maximum signal value−blank signal value)×100%.
(§10) Where the maximum signal was obtained from cell lysates treated with DMSO only, and the blank signal was obtained from wells containing only lysates.

The target of experiment [2] is T2, β5i subunit of the 20S proteasome (Homo sapiens, UniProt P20618+P28062).
T2 construct: The proteasome tested in the present disclosure was derived from Raji cells; endogenous in cells; host or cells: Raji cells
Kind of experiment: Proteasome inhibitory activity, β5i subunit (Raji cells treated with compound, lysed, Ac-ANW-AMC substrate). The following applies: proteasome from Raji cells incubated with compound 4 h.
Text: as §1, §2, §3, §4, §5, §6, §7, §8, §9, §10

What is called IC50 is the concentration at which inhibition is half-maximal. As to `CC(C(=O)NCc1cccc(-c2ccccc2)n1)C(=O)N[C@@H](Cc1ccccc1)B(O)O` (stereo partly drawn) [Example 1, ((1R)-1-(2-methyl-3-oxo-3-(((6-phenylpyridin-2-yl)methyl)amino)propionylamino)-2-phenylethyl)boric acid], the IC50 (in the experiment on MM.1S cell strain; in experiment [1]; in experiment [2]) was 50 to 200 nM in each case.
As to `COc1cccc(CNC(=O)C(CC2CC2)C(=O)N[C@@H](Cc2ccccc2)B(O)O)c1` (stereo partly drawn) [Example 3, ((1R)-1-(2-(cyclopropylmethyl)-3-((3-methoxybenzyl)amino)-3-oxopropionylamimo)-2-phenylethyl)boric acid], the IC50 (in the experiment with MM.1S cell strain; in experiment [1]; in experiment [2]) was at most 50 nM in each case.
Regarding `COc1cccc(CNC(=O)C(C)C(=O)N[C@@H](Cc2coc3ccccc23)B(O)O)c1` (stereo partly drawn) [Example 9], the IC50 (in the experiment with MM.1S cell strain; in experiment [1]; in experiment [2]) was at most 50 nM each time.
Take `Cc1ccc(CNC(=O)/C=C/C(=O)N[C@@H](Cc2ccc(C)cc2)B(O)O)cc1` [Example 10]: the IC50 in the experiment with MM.1S cell strain lay within 200 to 500 nM; in experiment [1], 50 to 200 nM; in experiment [2], 50 to 200 nM.
In the case of `CC(C)C[C@H](NC(=O)/C=C/C(=O)NCc1cccc(-c2ccccc2)n1)B(O)O` [Example 13, (R,E)-(3-methyl-1-(4-oxo-4-(((6-phenylpyridin-2-yl)methyl)amino)but-2-enamido)butyl)boric acid], the IC50 (in the experiment on MM.1S cell strain; in experiment [1]; in experiment [2]) was 50 to 200 nM throughout.
On to `O=C(/C=C/C(=O)N[C@@H](Cc1ccccc1)B(O)O)NCc1cccc(-c2ccccc2)n1` [Example 14, (R,E)-(1-(4-oxo-4-(((6-phenylpyridin-2-yl)methyl)amino)but-2-enamido)-2-phenylethyl)boric acid], for which the IC50 (in the experiment on MM.1S cell strain; in experiment [1]; in experiment [2]) was 50 to 200 nM in each case.
`O=C(CCC(=O)N[C@@H](Cc1ccccc1)B(O)O)NCc1ccccc1` [Example 16, (R)-(1-(4-(benzylamino)-4-oxobutanoylamino)-2-phenylethyl)boric acid]: the IC50 was 200 to 500 nM in the experiment on MM.1S cell strain, 50 to 200 nM in experiment [1] and at most 50 nM in experiment [2].
With `O=C(CC(=O)N[C@@H](Cc1coc2ccccc12)B(O)O)NCc1cccc(-c2ccccc2)c1` [Example 22, (R)-(1-(3-(([1,1′-biphenyl]-3-ylmethyl)amino)-3-oxopropionamido)-2-(benzofuran-3-yl)ethyl)boric acid], the IC50 (with MM.1S cell strain; in experiment [1]; in experiment [2]) was at most 50 nM in each case.
As to `Cc1ccc(C[C@H](NC(=O)CC(=O)NCc2cccc(-c3ccccc3)c2)B(O)O)cc1` [Example 27, (R)-(1-(3-(([1,1′-biphenyl]-3-ylmethyl)amino)-3-oxopropionamido)-2-(p-tolyl)ethyl)boric acid], the IC50 (in the experiment on MM.1S cell strain; in experiment [1]; in experiment [2]) was at most 50 nM each time.
As to `CC(C)C[C@H](NC(=O)C(C)C(=O)NCc1ccccc1)B(O)O` (stereo partly drawn) [Example 28, ((1R)-1-(3-(benzylamino)-2-methyl-3-oxopropionamido)-3-methylbutyl)boric acid], the IC50 (in the experiment on MM.1S cell strain; in experiment [1]; in experiment [2]) was 50 to 200 nM each time.
As to `CC(C(=O)NCc1ccccc1)C(=O)N[C@@H](Cc1ccccc1)B(O)O` (stereo partly drawn) [Example 29, ((1R)-1-(3-(benzylamino)-2-methyl-3-oxopropionamido)-2-phenylethyl)boric acid], the IC50 in the experiment with MM.1S cell strain is 50 to 200 nM; in experiment [1], at most 50 nM; in experiment [2], at most 50 nM.
Regarding `COc1cccc(CNC(=O)C(C)C(=O)N[C@@H](Cc2ccc(-c3ccccc3)cc2)B(O)O)c1` (stereo partly drawn) [Example 36, ((1R)-2-([1,1′-biphenyl]-4-yl)-1-(3-((3-methoxybenzyl)amino)-2-methyl-3-oxopropionamido)ethyl)boric acid], the IC50 (with MM.1S cell strain; in experiment [1]; in experiment [2]) was at most 50 nM each time.
As to `Cc1ccc(C[C@H](NC(=O)C(C)C(=O)NCc2ccccc2)B(O)O)cc1` (stereo partly drawn) [Example 38, ((1R)-1-(3-(benzylamino)-2-methyl-3-oxopropionamido)-2-(p-tolyl)ethyl)boric acid], the IC50 in the experiment with MM.1S cell strain was in the range of 200 to 500 nM; in experiment [1], 50 to 200 nM; in experiment [2] it was 50 to 200 nM.
On to `Cc1ccc(C[C@H](NC(=O)C(C)C(=O)Nc2ccccc2)B(O)O)cc1` (stereo partly drawn) [Example 40, ((1R)-1-(2-methyl-3-oxo-3-(phenylamino)propionamido)-2-(p-tolyl)ethyl)boric acid], for which the IC50 is 50 to 200 nM with MM.1S cell strain, 50 to 200 nM in experiment [1] and at most 50 nM in experiment [2].
For `CC(C)C[C@H](NC(=O)C(C)C(=O)NC1CCCCC1)B(O)O` (stereo partly drawn) [Example 41, ((1R)-1-(3-(cyclohexylamino)-2-methyl-3-oxopropionamido)-3-methylbutyl)boric acid], the values for the IC50 (with MM.1S cell strain; in experiment [1]; in experiment [2]) were 50 to 200 nM, 50 to 200 nM and at most 50 nM, respectively.
In the case of `Cc1ccc(C[C@H](NC(=O)C(C)C(=O)NC2CCCCC2)B(O)O)cc1` (stereo partly drawn) [Example 42, ((1R)-1-(3-(cyclohexylamino)-2-methyl-3-oxopropionamido)-2-(p-tolyl)ethyl)boric acid], the values for the 50% inhibitory concentration (IC50) (in the experiment with MM.1S cell strain; in experiment [1]; in experiment [2]) were 50 to 200 nM, at most 50 nM and at most 50 nM, respectively.
As to `COc1cccc(CNC(=O)C(C)C(=O)N[C@@H](Cc2ccc(C)cc2)B(O)O)c1` (stereo partly drawn) [Example 43, ((1R)-1-(3-((3-methoxybenzyl)amino)-2-methyl-3-oxopropionamido)-2-(p-tolyl)ethyl)boric acid], the IC50 (in the experiment with MM.1S cell strain; in experiment [1]; in experiment [2]) was at most 50 nM throughout.
